This note sets out measurements from PubChem BioAssay AID330 (DTP/NCI, 2004).

The experiment has as its system P388 leukemia ip, CD2F1 mice, survival T/C. Nature of the experiment: NCI In Vivo Anticancer Drug Screen. Data for tumor model P388 Leukemia (intraperitoneal) in CD2F1 (CDF1) mice. Conditions: endpoint: median survival time, higher = longer survival. In short, it runs like this:
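Mice carrying the transplanted tumor received test compound or vehicle. Survival was recorded in each group, and the value is the treated-group measurement divided by that of the vehicle-treated control group.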

Where [1] appears, read: dose: 50.0 mg/kg/injection, schedule: Q01DX009 (ip), vehicle: Klucel (hydroxypropylcellulose) (HPC).
Setting [2] is: dose: 100.0 mg/kg/injection, schedule: Q01DX009 (ip), vehicle: Klucel (hydroxypropylcellulose) (HPC).
[3] abbreviates: dose: 200.0 mg/kg/injection, schedule: Q01DX009 (ip), vehicle: Klucel (hydroxypropylcellulose) (HPC).
Setting [4] is: dose: 50.0 mg/kg/injection, schedule: Q01DX005 (ip), vehicle: saline with Tween-80.
Setting [5] is: dose: 100.0 mg/kg/injection, schedule: Q01DX005 (ip), vehicle: saline with Tween-80.
The mark [6] stands for this setting: dose: 200.0 mg/kg/injection, schedule: Q01DX005 (ip), vehicle: saline with Tween-80.
Setting [7] is: dose: 50.0 mg/kg/injection, schedule: Q01DX005 (ip), vehicle: saline.
[8] abbreviates: dose: 100.0 mg/kg/injection, schedule: Q01DX005 (ip), vehicle: saline.
Setting [9] is: dose: 200.0 mg/kg/injection, schedule: Q01DX005 (ip), vehicle: saline.
The mark [10] stands for this setting: dose: 50.0 mg/kg/injection, schedule: Q01DX005 (ip), vehicle: Klucel (hydroxypropylcellulose) (HPC).
Where [11] appears, read: dose: 100.0 mg/kg/injection, schedule: Q01DX005 (ip), vehicle: Klucel (hydroxypropylcellulose) (HPC).
Setting [12] is: dose: 50.0 mg/kg/injection, schedule: Q01DX009 (ip), vehicle: saline.

Each structure is given as a SMILES string. Values joined by “and” are separate entries in the source; they are usually repeats but may differ in a detail not shown here. Equal entries are not always repeated. Toxic doses and inconclusive results are not listed.

Turning to `N#CC1C(=O)NC(=O)C(C#N)C1c1ccc(C2C(C#N)C(=O)NC(=O)C2C#N)cc1` (configuration not stated), the T/C is 105 % of control under setting [1], 100 % of control under setting [2] and 113 % of control under setting [3].

Consider `C=C1C(=O)OC2C[C@]3(C)C(CC12)C(=C)C(O)C[C@@H]3OC(=O)C(C)CC` (some centres not stated), for which the T/C is, setting by setting: under setting [4], 105 % of control; under setting [5], 103 % of control; under setting [6], 111 % of control.

As for `CCN(CC)CCCC(C)Nc1nc(-c2ccccc2)nc2ccccc12` (configuration not stated), the T/C under setting [7] was 99 % of control, the T/C under setting [8] was 101 % of control and the T/C under setting [9] was 110 % of control.

As to `OCCc1cc[nH]c1`, the T/C runs as follows: (dose: 100.0 mg/kg/injection, schedule: Q01DX009 (ip), vehicle: saline with Tween-80) 104 % of control; (dose: 200.0 mg/kg/injection, schedule: Q01DX009 (ip), vehicle: saline with Tween-80) 104 % of control; (dose: 400.0 mg/kg/injection, schedule: Q01DX009 (ip), vehicle: saline with Tween-80) 95 % of control.

Consider `CC(=O)/C(C(=N)c1nc(C)c(C(C)=O)c(C(N)=O)n1)=C(\C)O`, for which the T/C reads like this: under setting [10], 103 % of control; under setting [11], 100 % of control.

For the compound `O=S(=O)(/N=C1/c2ccccc2/C(=N/S(=O)(=O)c2ccccc2)C2CC=CCC12)c1ccccc1` (configuration not stated), the T/C reads like this: (dose: 6.25 mg/kg/injection, schedule: Q01DX001 (ip), vehicle: saline with Tween-80) 100 % of control; (dose: 12.5 mg/kg/injection, schedule: Q01DX001 (ip), vehicle: saline with Tween-80) 95 % of control; (dose: 25.0 mg/kg/injection, schedule: Q01DX001 (ip), vehicle: saline with Tween-80) 100 % of control.

Regarding `O=C(OCC(OC(=O)c1ccccc1)C(OC(=O)c1ccccc1)C(OC(=O)c1ccccc1)c1nn[nH]n1)c1ccccc1` (configuration not stated), the T/C reads like this: under setting [4], 100 % of control; under setting [5], 100 % of control; under setting [6], 95 % of control.

As to `CC(C)NC(=S)S`, the T/C (dose: 25.0 mg/kg/injection, schedule: Q01DX009 (ip), vehicle: saline sonified) is 104 % of control; the T/C (dose: 50.0 mg/kg/injection, schedule: Q01DX009 (ip), vehicle: saline sonified) is 100 % of control; the T/C (dose: 100.0 mg/kg/injection, schedule: Q01DX009 (ip), vehicle: saline sonified) is 109 % of control.

Consider `CN(/N=C/c1ccccc1)C(N)=Nc1ccccc1`, for which the T/C runs as follows: under setting [4], 119 % of control; under setting [5], 107 % of control; under setting [6], 104 % of control.

Consider `CCC[CH2][Sn]1([CH2]CCC)[O]C2C(CO)OC(n3ccc(N)nc3=O)C2[O]1` (configuration not stated), for which the T/C (dose: 0.3 mg/kg/injection, schedule: Q03HX015 (ip), vehicle: Klucel (hydroxypropylcellulose) (HPC)) was 106 % of control; the T/C (dose: 0.44 mg/kg/injection, schedule: Q03HX015 (ip), vehicle: Klucel (hydroxypropylcellulose) (HPC)) is 117 % of control; the T/C (dose: 0.67 mg/kg/injection, schedule: Q03HX015 (ip), vehicle: Klucel (hydroxypropylcellulose) (HPC)) is 119 % of control and 121 % of control; the T/C (dose: 0.9 mg/kg/injection, schedule: Q01DX005 (ip), vehicle: Klucel (hydroxypropylcellulose) (HPC)) is 109 % of control; the T/C (dose: 1.0 mg/kg/injection, schedule: Q03HX015 (ip), vehicle: Klucel (hydroxypropylcellulose) (HPC)) is 123 % of control; the T/C (dose: 1.5 mg/kg/injection, schedule: Q03HX015 (ip), vehicle: Klucel (hydroxypropylcellulose) (HPC)) was 120 % of control and 124 % of control. Moreover, the T/C is, setting by setting: (dose: 1.56 mg/kg/injection, schedule: Q01DX009 (ip), vehicle: other) 102 % of control and 86 % of control; (dose: 2.0 mg/kg/injection, schedule: Q01DX005 (ip), vehicle: Klucel (hydroxypropylcellulose) (HPC)) 121 % of control; (dose: 3.0 mg/kg/injection, schedule: Q01DX005 (ip), vehicle: Klucel (hydroxypropylcellulose) (HPC)) 122 % of control; (dose: 3.12 mg/kg/injection, schedule: Q01DX009 (ip), vehicle: other) 97 % of control.

On to `CC(=O)OCC12C(OC(C)=O)CC(C)C3(CC(c4ccoc4)OC3=O)C1CCC(=O)C2(O)CCl` (configuration not stated), for which the T/C runs as follows: (dose: 0.75 mg/kg/injection, schedule: Q01DX005 (ip), vehicle: saline + alcohol) 106 % of control; (dose: 1.5 mg/kg/injection, schedule: Q01DX005 (ip), vehicle: saline + alcohol) 103 % of control; (dose: 3.0 mg/kg/injection, schedule: Q01DX005 (ip), vehicle: saline + alcohol) 106 % of control; (dose: 6.0 mg/kg/injection, schedule: Q01DX005 (ip), vehicle: saline + alcohol) 108 % of control; (dose: 12.0 mg/kg/injection, schedule: Q01DX005 (ip), vehicle: saline + alcohol) 106 % of control; (dose: 12.5 mg/kg/injection, schedule: Q01DX005 (ip), vehicle: saline + Tween-80 + alcohol) 92 % of control. Moreover, the T/C was 98 % of control (dose: 25.0 mg/kg/injection, schedule: Q01DX005 (ip), vehicle: saline + Tween-80 + alcohol); 89 % of control (dose: 100.0 mg/kg/injection, schedule: Q01DX005 (ip), vehicle: saline + Tween-80 + alcohol); 91 % of control (dose: 150.0 mg/kg/injection, schedule: Q01DX005 (ip), vehicle: saline + Tween-80 + alcohol).

Turning to `Oc1ccccc1C=Nc1ccc2nc(SC3CCCC3)sc2c1`, the T/C under setting [1] is 93 % of control, the T/C under setting [2] is 97 % of control and the T/C under setting [3] was 118 % of control.

In the case of `COc1c2occc2c(OC)c2c(C)c(C(=O)OCCN3CCOCC3)oc12`, the T/C by setting is: (dose: 60.0 mg/kg/injection, schedule: Q01DX005 (ip), vehicle: Klucel (hydroxypropylcellulose) (HPC)) 96 % of control; (dose: 120.0 mg/kg/injection, schedule: Q01DX005 (ip), vehicle: Klucel (hydroxypropylcellulose) (HPC)) 91 % of control; (dose: 240.0 mg/kg/injection, schedule: Q01DX005 (ip), vehicle: Klucel (hydroxypropylcellulose) (HPC)) 91 % of control.

As for `CCOc1ccc(NC(=O)OCc2c3ccccc3cc3ccccc23)cc1`, the T/C is, setting by setting: under setting [1], 100 % of control; under setting [2], 96 % of control; under setting [3], 105 % of control.

Regarding `COc1cc(C2c3cc4c(cc3[C@@H](OC3OC5CO[C@@H](C)OC5C(O)C3O)[C@H]3COC(=O)C23)OCO4)cc(OC)c1OC` (some centres not stated), the T/C reads like this: (dose: 16.0 mg/kg/injection, schedule: Q01DX005 (ip), vehicle: saline) 163 % of control; (dose: 32.0 mg/kg/injection, schedule: Q01DX005 (ip), vehicle: saline) 166 % of control; (dose: 64.0 mg/kg/injection, schedule: Q01DX005 (ip), vehicle: saline) 153 % of control.

`N#Cc1ccc[n+](Cc2c(Cl)cccc2Cl)c1`: the T/C is, setting by setting: (dose: 6.25 mg/kg/injection, schedule: Q01DX009 (ip), vehicle: saline) 121 % of control; (dose: 12.5 mg/kg/injection, schedule: Q01DX009 (ip), vehicle: saline) 108 % of control and 112 % of control; (dose: 25.0 mg/kg/injection, schedule: Q01DX009 (ip), vehicle: saline) 101 % of control and 115 % of control; under setting [12], 110 % of control and 97 % of control.

For `OCCCCC1COC(CC2OCC(CCCCO)O2)O1` (configuration not stated), the T/C is 101 % of control under setting [7], 100 % of control under setting [8] and 101 % of control under setting [9].

As for `C=CC(C=C)O[Si](C)(C)C(C)(C)C`, the T/C by setting is: (dose: 23.0 mg/kg/injection, schedule: Q01DX005 (ip), vehicle: saline) 101 % of control; (dose: 46.0 mg/kg/injection, schedule: Q01DX005 (ip), vehicle: saline) 105 % of control; (dose: 92.0 mg/kg/injection, schedule: Q01DX005 (ip), vehicle: saline) 105 % of control.

Consider `CC(=O)c1c(O)c2c(=O)n(C)c(C)cc2n(C)c1=O`, for which the T/C is 100 % of control under setting [10]; 100 % of control under setting [11]; 98 % of control (dose: 200.0 mg/kg/injection, schedule: Q01DX005 (ip), vehicle: Klucel (hydroxypropylcellulose) (HPC)).

Regarding `O=C1OCC(Cc2ccc3c(c2)OCO3)C1Cc1ccc2c(c1)OCO2` (configuration not stated), the T/C runs as follows: under setting [12], 109 % of control; (dose: 100.0 mg/kg/injection, schedule: Q01DX009 (ip), vehicle: saline) 93 % of control; (dose: 200.0 mg/kg/injection, schedule: Q01DX009 (ip), vehicle: saline) 99 % of control.

`CCOC(=O)C(Cc1ccccc1)C1(C)SCCN1C(=O)OCC` (configuration not stated): the T/C is 101 % of control (dose: 25.0 mg/kg/injection, schedule: Q01DX005 (ip), vehicle: saline with Tween-80); 105 % of control under setting [4]; 100 % of control under setting [5]; 103 % of control under setting [6].
